Measured values published in PMC8667045, “Into Deep Water: Optimizing BCL6 Inhibitors by Growing into a Solvated Pocket” (Journal of Medicinal Chemistry, 2021).
In brackets after ≈: the same amount, converted by molar mass. Several values for one entry are separate records, joined by “and”; a condition that tells them apart may be missing. Equal entries are not always repeated. Where two headings read alike, the source gives them in different places.

Assays:
[1] = target: T1, BCL6 BTB domain (Homo sapiens, UniProt P41182); assay: biochemical; details: for BCL6 TR-FRET pIC50 mean: mean of n replicates
Method: Supplementary experimental: protein production, purification and crystallography
3C protease cleavage site.
used without cleaving the tag, as a 6His was needed to bind to the anti-6His-Terbium antibody. For
For both plasmid constructs described above, transformed BL21-AI E. coli cells were grown in LB
carried out at 18 °C for 18 hours. Cells were harvested by centrifugation (5500 g for 30 minutes at 4
oC) and stored at -80 °C.
Cells were re-suspended in a buffer composed of 20 mM Tris pH 8, 250 mM NaCl, 1 mM MgCl2, 0.5
Cells were lysed by sonication followed by centrifugation at 21,000 g for 45 minutes at 4 °C. […]
The final protein was assessed for purity
and molar mass by SDS-PAGE and high-resolution mass spectrometry, respectively.
(§1) directly eluted from the HisTrap FF column without HRV-3C treatment, and submitted to Superdex75
gel filtration as described above. […]
2. Supplementary experimental: biological assay conditions
IC50 values were determined using
a sigmoidal four-parameter logistic fit equation.

[2] = HPLC solubility assay; assay type: physicochemical; details: PBS buffer, PBS pH 7.4, 1% DMSO, room temperature
Method: 3. Supplementary experimental: physicochemical assays […]
3.2 HPLC solubility assay
DMSO. Following shaking of the suspension on a Bohdan Shaker at 500 rpm for 2 hours at room […]
200 µL of the supernatant was transferred to a 2 mL Agilent vial containing 50 µL of DMSO (Sigma […]
detection using an external standard which was prepared by pipetting 10 µL of the same batch of […]
The detail of the HPLC method is as following: chromatographic separation at 30°C is carried out over a 5 minute gradient elution method from 90:10 to 10:90 water:methanol (both modified with 0.1% formic acid) at a flow rate of 1.5 mL/min. Calibration curve is prepared by injecting 0.5, 2.5, and 5 µL of compound external standard.
62.5 µL of compound solubility sample.

[3] = NMR solubility assay; assay type: physicochemical; details: HEPES buffer, 5% DMSO, room temperature
Method: 3. Supplementary experimental: physicochemical assays
The plate was then sealed and incubated at room temperature for 20 hours, without shaking. The plate was centrifuged again for 1 minute at […]
spectrometer equipped with a 5 mm TCI-CryoProbe. […]
deuterated solvent. […] All NMR data were acquired at the […]
contained 16k time-domain data points. Relaxation delay was set to 20 sec. […]

[4] = Measured logD7.4; assay type: physicochemical; details: pH 7.4
[5] = PAMPA passive permeability pH 7.4; details: for PAMPA7.4: pH 7.4, passive permeability Pe
[6] = target: T1, BCL6 BTB domain; assay: Rapid X-ray screen: ligand density in extended pocket of BCL6 BTB domain; parameters: made in house; host or cells: E. coli BL21-AI; details: crystals soaked with compound
Description: Furthermore, we speculated that these represent better starting points since the substituent can be modified further to derive additional interactions and more completely fill the extended pocket. […] Instead, we just checked for the presence of ligand density and, in particular, for electron density in the extended pocket.
as §1
gel filtration as described above.
NH2. A stock solution of WVIP peptide at 100 mM in 100 % DMSO was added to a 2 mg/mL solution
This mixture was then concentrated to a final
protein concentration of 4 mg/mL using a centrifugal concentrator with a 3 kDa molecular weight
complex plus 1 μL of a crystallisation solution consisting of 1 M K 2HPO4, 0.7 M NaH2PO4, 75 mM
drops, followed by 10-120 minutes incubation. Crystals were then cryo-protected in a solution
composed of the crystallisation reagent supplemented with 30 % ethylene glycol and cryo-cooled in
concentrated to a final protein concentration of 10 mg/mL using a centrifugal concentrator with a 3
kDa molecular weight cut-off. Crystals were grown at 18 °C in hanging drops composed of 1.5 μL of
and 0.80 M Na/K Tartrate, against 300 μL of crystallisation solution.
and compounds were soaked as described above for the other construct. Crystals were then cryo-
protected in a solution composed of the crystallisation reagent supplemented with 30 % ethylene
glycol and cryo-cooled in liquid nitrogen.
1.5 Crystallographic data collection, processing and refinement
X-ray data were collected at Diamond Light Source, Harwell campus, Oxfordshire, UK, on beamlines
Research, London, UK, on a Rigaku FRX-AFC11-VariMax Cu-VHF-Pilatus300K. Crystals obtained with […]

[7] = TR-FRET IC50 individual replicates, single replicates, italic values used 10nM BCL6, otherwise 1nM BCL6
[8] = read-out: BCL6 TR-FRET Geo Mean IC50, geometric mean of n replicates, supplement
[9] = read-out: TR-FRET IC50, tables and figures
[10] = read-out: TR-FRET IC50 individual replicates, single replicates, italic values used 10nM BCL6, otherwise 1nM BCL6

Compound | IC50 [1, 7] | BCL6 TR-FRET pIC50 mean [1] | IC50 [1, 8] [µM] | IC50 [1, 9] | IC50 [1, 10] | solubility at 2 h [2] [µM] | solubility at 20 h [3] [µM] | logD [4] | PAMPA7.4 [5] | Ligand density in extended pocket [6] | Papp ([5]; PAMPA, pH 7.4) [×10⁻⁶ cm/s]
CNC(=O)CNc1cc(=O)[nH]c2ccc(Nc3ccnc(Cl)c3C#N)cc12 [Compound 12e, 2-((6-((2-Chloro-3-cyanopyridin-4-yl)amino)-2-oxo-1,2-dihydroquinolin-4-yl)amino)-N-methylacetamide] | 19.9 µM and 74.1 µM and 10.2 µM and 22.4 µM | 4.62 and 4.623 | 23.8 | 23.8 µM | 22.8 µM | 35 (≈ 13.4 µg/mL) | – | – | – | – | –
Cn1c(=O)ccc2cc(Nc3ccnc(Cl)c3C#N)ccc21 [Compound 2, 2-Chloro-4-((1-methyl-2-oxo-1,2-dihydroquinolin-6-yl)amino)nicotinonitrile] | 2.28 µM and 4.29 µM and 4.07 µM and 1.38 µM | 5.57 and 5.565 | 2.72 | 2.7 µM and 2.72 µM | – | 12 (≈ 3.73 µg/mL) | – | – | – | – | –
Cn1c(=O)cc(NC(C)(C)c2ncccn2)c2cc(Nc3ccnc(Cl)c3C#N)ccc21 [Compound 13g, 2-Chloro-4-((1-methyl-2-oxo-4-((2-(pyrimidin-2-yl)propan-2-yl)amino)-1,2-dihydroquinolin-6-yl)amino)nicotinonitrile] | – | – | – | – | – | – | 15 (≈ 6.69 µg/mL) | 1.9 | 1.8 x10^-6 cms^-1 | – | –
N#Cc1c(Nc2ccc3[nH]c(=O)cc(N4CCOCC4)c3c2)ccnc1Cl [Compound 8d, 2-Chloro-4-((4-morpholino-2-oxo-1,2-dihydroquinolin-6-yl)amino)nicotinonitrile] | 2.66 µM and 2.56 µM and 1.47 µM | 5.67 and 5.672 | 2.13 | 2.13 µM | 2.1 µM and 2.08 µM | – | – | – | – | No | –
CNC(=O)C(C)Nc1cc(=O)[nH]c2ccc(Nc3ccnc(Cl)c3C#N)cc12 (stereo not shown) [Compound 12a, 2-((6-((2-Chloro-3-cyanopyridin-4-yl)amino)-2-oxo-1,2-dihydroquinolin-4-yl)amino)-N-methylpropanamide] | 0.62 µM and 0.49 µM and 0.58 µM and 0.51 µM and 0.66 µM and 0.47 µM and 0.46 µM and 0.5 µM and 0.74 µM and 0.48 µM and 0.65 µM | 6.26 and 6.258 | 0.552 | 0.55 µM | – | 37 (≈ 14.7 µg/mL) | – | – | – | – | < 0.2
N#Cc1c(Nc2ccc3[nH]c(=O)cc(N4CCCCC4)c3c2)ccnc1Cl [Compound 8b, 2-Chloro-4-((2-oxo-4-(piperidin-1-yl)-1,2-dihydroquinolin-6-yl)amino)nicotinonitrile] | 1.57 µM and 1.24 µM and 0.92 µM and 0.54 µM and 2.32 µM | 5.93 and 5.929 | 1.18 | 1.18 µM | – | – | – | – | – | No | –
CC(Nc1cc(=O)n(C)c2ccc(Nc3ccnc(Cl)c3C#N)cc12)c1ncco1 (stereo not shown) [Compound 13b, 2-Chloro-4-((1-methyl-4-((1-(oxazol-2-yl)ethyl)amino)-2-oxo-1,2-dihydroquinolin-6-yl)amino)nicotinonitrile] | – | – | – | – | – | 2.8 (≈ 1.18 µg/mL) | – | – | 1.0 x10^-6 cms^-1 | – | –
CN(C)c1cc(=O)[nH]c2ccc(Nc3ccnc(Cl)c3C#N)cc12 [Compound 8a, 2-Chloro-4-((4-(dimethylamino)-2-oxo-1,2-dihydroquinolin-6-yl)amino)nicotinonitrile] | 7.01 µM and 4.46 µM | 5.25 and 5.254 | 5.57 | 5.57 µM | 5.52 µM | – | – | – | – | No | –
Cn1c(=O)n(C)c2cc(Nc3ccnc(Cl)c3C#N)ccc21 [Compound 1] | – | – | – | – | – | 16 (≈ 5.02 µg/mL) | – | – | – | – | –
CC(Nc1cc(=O)n(C)c2ccc(Nc3ccnc(Cl)c3C#N)cc12)c1ncccn1 (stereo not shown) [Compound 13e, 2-Chloro-4-((1-methyl-2-oxo-4-((1-(pyrimidin-2-yl)ethyl)amino)-1,2-dihydroquinolin-6-yl)amino)nicotinonitrile] | – | – | – | – | – | – | 249 (≈ 108 µg/mL) | 1.4 | 1.4 x10^-6 cms^-1 | – | –
